Laboratory results taken from ChEMBL document CHEMBL1121775, “Synthesis and antimalarial effects of N2-aryl-N4-[(dialkylamino)alkyl]- and N4-aryl-N2-[(dialkylamino)alkyl]-2,4-quinazolinediamines” (J Med Chem, 1981).
Where “and” joins values, the source holds several entries; their conditions need not be identical. Equal values may be shown once.

How the values were obtained:
Mus musculus [1] = assay: Number of toxic deaths at a dose of 640 mg/kg; assay type: toxicity, organism-based; set-up: dose 640 mg/kg; details: in vivo
Mus musculus [2] = assay: Number of toxic deaths at a dose of 160 mg/kg; assay type: functional
Plasmodium berghei [3] = assay: Antimalarial effect against trophozoite-induced Plasmodium berghei in mice (Mus musculus) after 40 mg/kg subcutaneous dose; assay type: functional
Plasmodium berghei [4] = assay: Antimalarial activity against trophozoite-induced Plasmodium berghei in mice (Mus musculus) at 160 mg/kg subcutaneous dose; assay type: functional
Mus musculus [5] = assay: Number of toxic deaths at a dose of 320 mg/kg; assay type: toxicity, organism-based; set-up: dose 320 mg/kg; details: in vivo
Mus musculus [6] = assay: Antimalarial effect against trophozoite induced Plasmodium berghei in mice (Mus musculus) at dosage of 160 mg/kg after subcutaneous administration; No. of mice (Mus musculus) surviving after 60 days 2; assay type: functional
Mus musculus [7] = assay: Number of mice cured at a subcutaneous dose of 640 mg/kg.; assay type: functional
Mus musculus [8] = assay: Antimalarial effect against trophozoite-induced Plasmodium berghei in mice (Mus musculus) at dosage of 80 mg/kg after subcutaneous administration; assay type: functional
Plasmodium berghei [9] = assay: Antimalarial activity against trophozoite-induced Plasmodium berghei in mice (Mus musculus); assay type: functional
[10] = The ratio of SD90 of the quinine hydrochloride, to the SD90 of the test substance for the Dose of 155 mg/kg; assay type: functional
Plasmodium berghei [11] = assay: Antimalarial effect against trophozoite-induced Plasmodium berghei in mice (Mus musculus) after 20 mg/kg subcutaneous dose; assay type: functional
Plasmodium berghei [12] = assay: Antimalarial effect against trophozoite-induced Plasmodium berghei in mice (Mus musculus) at 80 mg/kg subcutaneous dose; assay type: functional
[13] = The ratio of SD90 of the quinine hydrochloride, to the SD90 of the test substance for the Dose of 69 mg/kg; assay type: functional
Plasmodium berghei [14] = assay: Antimalarial effect against trophozoite-induced Plasmodium berghei in mice (Mus musculus) at 320 mg/kg subcutaneous dose; assay type: functional
Plasmodium berghei [15] = assay: Antimalarial effect against trophozoite-induced Plasmodium berghei in mice (Mus musculus) at 160 mg/kg subcutaneous dose; assay type: functional
Plasmodium berghei [16] = assay: (§1) Antimalarial effect against trophozoite-induced Plasmodium berghei in mice (Mus musculus) at 640 mg/kg subcutaneous dose; assay type: functional
[17] = The ratio of SD90 of the quinine hydrochloride, to the SD90 of the test substance for the Dose of 74.5 mg/kg; assay type: functional
[18] = The ratio of SD90 of the quinine hydrochloride, to the SD90 of the test substance for the Dose of >34 mg/kg; assay type: functional
Plasmodium berghei [19] = assay: as §1; assay type: functional; details: 640 mg/kg
Mus musculus [20] = assay: Number of mice cured at a dose of 640 mg/kg sc; assay type: functional; details: route subcutaneous
Mus musculus [21] = assay: Antimalarial effect against trophozoite induced Plasmodium berghei in mice (Mus musculus) at dosage of 40 mg/kg after subcutaneous administration; assay type: functional
[22] = The ratio of SD90 of the quinine hydrochloride, to the SD90 of the test substance for the Dose of 36 mg/kg; assay type: functional
[23] = The ratio of SD90 of the quinine hydrochloride, to the SD90 of the test substance for the Dose of 37 mg/kg/day; assay type: functional
[24] = The ratio of SD90 of the quinine hydrochloride, to the SD90 of the test substance for the Dose of 80 mg/kg; assay type: functional
[25] = The ratio of SD90 of the quinine hydrochloride, to the SD90 of the test substance for the Dose of 2.2 mg/kg; assay type: functional

SMILES | MST (Plasmodium berghei [3]) | MST (Plasmodium berghei [3]; 40 mg/kg) | SD90 (Plasmodium berghei [9]) | MST (Plasmodium berghei [11]) | MST (Plasmodium berghei [12]) | MST (Plasmodium berghei [14]) | MST (Plasmodium berghei [15]) | MST (Plasmodium berghei [15]; 160 mg/kg) | also measured
CCN(CC)CCNc1nc(NCc2ccc(Cl)c(Cl)c2)nc2ccccc12 | 0.7 days | – | – | – | – | – | – | – | No. of toxic deaths (Mus musculus [1]): 5; No. of toxic deaths (Mus musculus [2]): 1; MST (Plasmodium berghei [4]): 0.9 days
CCN(CC)Cc1cc(Nc2nc(NC3CCC(N(C)C)CC3)c3ccccc3n2)ccc1OC (stereo unspecified) | – | 7.7 days and 7.2 days | 155 mg/kg/day | 7.5 days | – | – | – | – | No. of toxic deaths (Mus musculus [5]): 5; No. of toxic deaths (Mus musculus [1]): 5; MST (Mus musculus [6]): 16.3 days; No. of cured (Mus musculus [7]): 3; MST (Mus musculus [8]): 13 days; Ratio [10]: 0.5; MST (Plasmodium berghei [4]): 13 days
CCN(CC)CCNc1nc(Nc2ccc(Cl)c(Cl)c2)nc2ccc(NCc3ccc(Cl)c(Cl)c3)cc12 | – | 0.2 days and 0.4 days | 69 mg/kg/day | 0.2 days | 0.4 days | 5.6 days | 3.8 days | – | Ratio [13]: 1.1
C=C[C@H]1CN2CC[C@H]1C[C@H]2[C@H](O)c1ccnc2ccc(OC)cc12 [QUININE] | 1 days | – | 74.5 mg/kg/day | 0.2 days | 1.4 days | 3.2 days | 2 days | – | MST (Plasmodium berghei [16]): 5.4 days; Ratio [17]: 1
CCOc1ccc(Nc2nc(NCCN(CC)CC)c3ccc(Cl)cc3n2)cc1CN1CCCC1 | – | – | >34 mg/kg/day | – | – | – | – | – | Ratio [18]: <2.2
CCN1CCCC(Nc2nc(Nc3cc(Cl)cc(Cl)c3)nc3ccc(Cl)cc23)C1 (stereo unspecified) | 0.2 days | – | 36 mg/kg/day | 0.2 days | 0.6 days | 6.4 days | 1 days | – | MST (Plasmodium berghei [19]): 7.8 days and 4.8 days; No. of survivals (Mus musculus [20]): 3; MST (Mus musculus [21]): 0.4 days; Ratio [22]: 2.1
FC(F)(F)c1ccc(Nc2nc(NCCN3CCCC3)c3ccccc3n2)cc1 | – | 0.4 days and 0.8 days | 37 mg/kg/day | 0.2 days | 2.4 days | 10.2 days | – | 4.8 days and 3.4 days | Ratio [23]: 2; MST (Plasmodium berghei [16]; 640 mg/kg): 16.2 days and 13.2 days
Clc1cc(Cl)cc(Nc2nc(NCCN3CCCC3)c3ccccc3n2)c1 | – | 0.9 days and 1.3 days | 80 mg/kg/day | 0.5 days | 1.7 days | 5.9 days | – | 3.5 days and 4.1 days | Ratio [24]: 0.9; MST (Plasmodium berghei [16]; 640 mg/kg): 10.7 days and 10.3 days
CCN1CCCC(Nc2nc(Nc3ccc(Cl)c(Cl)c3)nc3ccccc23)C1 (stereo unspecified) | – | 0.6 days and 0.5 days | 2.2 mg/kg/day | 0.4 days | 1 days | 13.8 days | – | 6.2 days and 7.3 days | MST (Plasmodium berghei [19]): 13.8 days and 24.2 days; No. of cured (Mus musculus [7]; 640 mg/kg): 3 and 2; Ratio [25]: 34
